The values below are quoted from earlier work in US20150099002A1, “MEANS AND METHODS FOR ENHANCING WEIGHT GAIN IN POULTRY” (Nutrinia Ltd., priority 2007, published 2015).

For the series, the system named is Cobb male chicks. As to conditions: through drinking water or feed, high amounts, at least 21 days.

With “insulin: insulin provided to chicks through drinking water or feed in WO 2005/115473”, the “weight gain compared to same feed without insulin” value is listed as “higher weight gain”.
